# According to PubChem BioAssay (NCI):
# Where “and” joins values, the source holds several entries; their conditions need not be identical. Equal entries are not always repeated.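 Cells were grown in 96-well plates and exposed to each compound for 48 hours at five concentrations; endpoints were interpolated linearly between bracketing concentrations, or set to the highest concentration if not reached. Abbreviation: GI50, concentration required for 50% inhibition of growth. TGI marks complete inhibition of growth.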
# Experiments:
# Test in all cases: DTP human tumour cell line panel, 48 h
# A498 renal = test system: A498 renal
# CCRF-CEM leukemia = test system: CCRF-CEM leukemia
# HL-60(TB) leukemia = test system: HL-60(TB) leukemia
# MALME-3M melanoma = test system: MALME-3M melanoma
# MOLT-4 leukemia = test system: MOLT-4 leukemia
# OVCAR-3 ovarian = test system: OVCAR-3 ovarian
# SF-268 CNS = test system: SF-268 CNS
# DU-145 prostate = test system: DU-145 prostate
# MDA-MB-231 breast = test system: MDA-MB-231 breast
# MCF7 breast = test system: MCF7 breast
smiles,measurement,setting,value
CCOC(OC(C)=O)[C@@H]1C=C[C@H](C)N(c2ccc([N+](=O)[O-])cc2)O1 (some centres not stated),TGI,A498 renal,> 59.4 µM
same,TGI,CCRF-CEM leukemia,> 21.8 µM
same,TGI,HL-60(TB) leukemia,4.79 µM
same,TGI,MALME-3M melanoma,20.1 µM
same,TGI,MOLT-4 leukemia,5.49 µM
same,TGI,OVCAR-3 ovarian,15.7 µM
same,TGI,SF-268 CNS,15.6 µM
CSc1ccc2c(cc1=O)[C@@H](NC(=O)c1cccc([N+](=O)[O-])c1)CCc1cc(O)c(O)c(O)c1-2,TGI,A498 renal,90.7 µM
same,TGI,CCRF-CEM leukemia,> 100 µM
same,TGI,HL-60(TB) leukemia,> 100 µM
same,TGI,MALME-3M melanoma,> 100 µM
same,TGI,MOLT-4 leukemia,53.1 µM
same,TGI,OVCAR-3 ovarian,> 100 µM
same,TGI,SF-268 CNS,> 100 µM
C=C(CCCCC)CN1CCCC1C(C)=O (configuration not stated),TGI,A498 renal,> 93.5 µM
same,TGI,CCRF-CEM leukemia,41.2 µM
same,TGI,HL-60(TB) leukemia,19.7 µM
same,TGI,MALME-3M melanoma,> 100 µM
same,TGI,MOLT-4 leukemia,33 µM
same,TGI,OVCAR-3 ovarian,> 100 µM
same,TGI,SF-268 CNS,> 100 µM
Cc1ccc(C)c(N2C(=O)C(=O)C(c3nc4ccccc4s3)/C(=N/N)C2=O)c1 (configuration not stated),TGI,A498 renal,> 22.6 µM
same,TGI,CCRF-CEM leukemia,> 100 µM
same,TGI,HL-60(TB) leukemia,> 100 µM
same,TGI,MALME-3M melanoma,> 100 µM
same,TGI,MOLT-4 leukemia,> 100 µM
same,TGI,OVCAR-3 ovarian,> 100 µM
same,TGI,SF-268 CNS,> 100 µM
COc1cc2cc(OC(C)=O)c3cc4c(cc3c2c(OC)c1OC)OCO4,TGI,A498 renal,> 100 µM
same,TGI,CCRF-CEM leukemia,> 100 µM
same,TGI,HL-60(TB) leukemia,> 100 µM
same,TGI,MALME-3M melanoma,> 100 µM
same,TGI,MOLT-4 leukemia,> 100 µM
same,TGI,OVCAR-3 ovarian,> 100 µM
same,TGI,SF-268 CNS,> 100 µM
COc1ccc(Cc2c3cc(O)c(=O)cc-3ccn2C)cc1,TGI,A498 renal,> 100 µM
same,TGI,CCRF-CEM leukemia,> 76.3 µM
same,TGI,HL-60(TB) leukemia,> 100 µM
same,TGI,MALME-3M melanoma,> 88.1 µM
same,TGI,MOLT-4 leukemia,> 81 µM
same,TGI,OVCAR-3 ovarian,> 100 µM
same,TGI,SF-268 CNS,98.2 µM
C=CCC1(CN(C)C)CC/C(=C\c2ccc(OC)cc2)C1=O (configuration not stated),TGI,A498 renal,> 100 µM
same,TGI,CCRF-CEM leukemia,> 100 µM
same,TGI,HL-60(TB) leukemia,45.6 µM
same,TGI,MALME-3M melanoma,> 100 µM
same,TGI,MOLT-4 leukemia,> 100 µM
same,TGI,OVCAR-3 ovarian,> 100 µM
same,TGI,SF-268 CNS,> 100 µM
COC(=O)[C@@H]1c2cc3c(c(O)c2[C@@H](OC2OC(C)C(OC)C(C)(OC)C2OC)C[C@]1(C)O)C(=O)c1c(O)cc2c(c1C3=O)O[C@H]1O[C@]2(C)[C@H](O)[C@@H](N(C)C)[C@@H]1O (some centres not stated),TGI,A498 renal,0.0162 µM
same,TGI,CCRF-CEM leukemia,0.198 µM and 0.258 µM
same,TGI,DU-145 prostate,0.455 µM
same,TGI,HL-60(TB) leukemia,0.107 µM
same,TGI,MALME-3M melanoma,0.0666 µM and 0.0545 µM
same,TGI,MDA-MB-231 breast,0.214 µM
same,TGI,MOLT-4 leukemia,0.229 µM and 0.0903 µM
same,GI50,OVCAR-3 ovarian,0.0683 µM
same,TGI,SF-268 CNS,0.329 µM and 0.135 µM
CC(=O)Nc1ccc(/C=C/C(=O)c2sc(-c3cccnc3)nc2C)cc1,TGI,A498 renal,> 100 µM
same,TGI,CCRF-CEM leukemia,> 100 µM
same,TGI,HL-60(TB) leukemia,> 100 µM
same,TGI,MALME-3M melanoma,> 100 µM
same,TGI,MOLT-4 leukemia,> 100 µM
same,TGI,OVCAR-3 ovarian,> 100 µM
same,TGI,SF-268 CNS,> 100 µM
CC1(C)OC2C(CCP(=O)(O)O)OC(c3nc(C(N)=O)cs3)C2O1 (configuration not stated),TGI,A498 renal,> 100 µM
same,TGI,CCRF-CEM leukemia,> 100 µM
same,TGI,MALME-3M melanoma,> 100 µM
same,TGI,MOLT-4 leukemia,> 100 µM
same,TGI,SF-268 CNS,> 100 µM
CN(CCS(=O)(=O)N1C(=O)C2CCCN2C(=O)[C@@H]1Cc1ccccc1)C(=O)OCc1ccccc1 (some centres not stated),TGI,A498 renal,> 100 µM
same,TGI,CCRF-CEM leukemia,> 100 µM
same,TGI,HL-60(TB) leukemia,27.4 µM
same,TGI,MALME-3M melanoma,> 100 µM
same,TGI,MOLT-4 leukemia,53.5 µM
same,TGI,OVCAR-3 ovarian,> 100 µM
same,TGI,SF-268 CNS,> 100 µM
O=C1C=C(Nc2ccc(Cl)cc2Cl)c2ccccc2C1=O,TGI,A498 renal,> 100 µM
same,TGI,CCRF-CEM leukemia,85 µM
same,TGI,HL-60(TB) leukemia,92.5 µM
same,TGI,MALME-3M melanoma,71 µM
same,TGI,MOLT-4 leukemia,> 100 µM
same,TGI,OVCAR-3 ovarian,> 100 µM
same,TGI,SF-268 CNS,> 100 µM
Cc1c(C)n(CCCN2CCN(C)CC2)c2ccc(Oc3cccc(C(=O)N4CCN(CCc5ccc(F)cc5)CC4)c3)cc12,GI50,DU-145 prostate,1.86 µM
same,TGI,DU-145 prostate,3.6 µM
same,GI50,MALME-3M melanoma,1.78 µM
same,TGI,MALME-3M melanoma,3.32 µM
same,GI50,MCF7 breast,1.59 µM
same,TGI,MCF7 breast,3.22 µM
same,GI50,MDA-MB-231 breast,1.82 µM
same,TGI,MDA-MB-231 breast,3.43 µM
same,GI50,OVCAR-3 ovarian,1.82 µM
same,TGI,OVCAR-3 ovarian,3.39 µM
same,GI50,SF-268 CNS,1.79 µM
same,TGI,SF-268 CNS,3.78 µM
COC(=O)c1cc2c(=O)n(C)c3ccccc3n2c1C(=O)OC,TGI,A498 renal,> 100 µM
same,TGI,CCRF-CEM leukemia,> 100 µM
same,TGI,MALME-3M melanoma,> 100 µM
same,TGI,MOLT-4 leukemia,> 100 µM
same,TGI,OVCAR-3 ovarian,> 100 µM
same,TGI,SF-268 CNS,> 100 µM
C/C(=N\N=C(N)N)C(CN1CCCCC1)C(c1ccccc1)c1c(O)c2ccccc2oc1=O (configuration not stated),TGI,A498 renal,> 100 µM
same,TGI,CCRF-CEM leukemia,> 100 µM
same,TGI,HL-60(TB) leukemia,> 100 µM
same,TGI,MALME-3M melanoma,> 100 µM
same,TGI,OVCAR-3 ovarian,> 100 µM
same,TGI,SF-268 CNS,> 100 µM
COC1CCC(OS(C)(=O)=O)C(CO)O1 (configuration not stated),TGI,CCRF-CEM leukemia,> 100 µM
same,TGI,HL-60(TB) leukemia,> 100 µM
same,TGI,MALME-3M melanoma,> 100 µM
same,TGI,MOLT-4 leukemia,> 100 µM
same,TGI,OVCAR-3 ovarian,> 100 µM
CCCCCCCCCCCCCCCC1=NCC[N+]1(CCO)CCO,GI50,A498 renal,7.79 µM
same,TGI,A498 renal,21.6 µM
same,GI50,HL-60(TB) leukemia,0.442 µM
same,TGI,HL-60(TB) leukemia,2.61 µM
same,GI50,MALME-3M melanoma,12.2 µM
same,TGI,MALME-3M melanoma,28 µM
same,GI50,MCF7 breast,3.46 µM
same,TGI,MCF7 breast,14 µM
same,GI50,MDA-MB-231 breast,1.81 µM
same,TGI,MDA-MB-231 breast,3.51 µM
same,GI50,MOLT-4 leukemia,1.8 µM
same,TGI,MOLT-4 leukemia,4.15 µM
same,GI50,OVCAR-3 ovarian,2.52 µM
same,TGI,OVCAR-3 ovarian,5.74 µM
same,GI50,SF-268 CNS,1.71 µM
same,TGI,SF-268 CNS,3.46 µM
CC1Cc2c(Cl)ncnc2N(C)c2ccc(Cl)cc21 (configuration not stated),GI50,A498 renal,0.24 µM
same,TGI,A498 renal,0.547 µM
same,GI50,CCRF-CEM leukemia,0.51 µM
same,TGI,CCRF-CEM leukemia,> 100 µM
same,GI50,DU-145 prostate,0.589 µM
same,TGI,DU-145 prostate,> 100 µM
same,GI50,HL-60(TB) leukemia,0.403 µM
same,TGI,HL-60(TB) leukemia,> 100 µM
same,GI50,MALME-3M melanoma,0.276 µM
same,TGI,MALME-3M melanoma,3.67 µM
same,GI50,MDA-MB-231 breast,0.274 µM
same,TGI,MDA-MB-231 breast,0.691 µM
same,GI50,MOLT-4 leukemia,0.382 µM
same,TGI,MOLT-4 leukemia,> 100 µM
same,GI50,OVCAR-3 ovarian,0.21 µM
same,TGI,OVCAR-3 ovarian,0.477 µM
same,GI50,SF-268 CNS,0.319 µM
same,TGI,SF-268 CNS,18.2 µM
